Test results from ChEMBL document CHEMBL5550217, “Discovery of gem-Dimethyl-hydroxymethylpyridine Derivatives as Potent Non-nucleoside RSV Polymerase Inhibitors” (J Med Chem, 2024).
Calls of active or inactive are those of the source. The calls are words filed in the database; no cut-off is given here.

Experiments:
[1] = Inhibition of RSV RNA polymerase assessed as RNA products using […] template by SPA primer extension enzymatic assay; design: species or system Respiratory syncytial virus
[2] = system: Respiratory syncytial virus; test: Antiviral activity against Respiratory syncytial virus (RSV)-A2-eGFP infected in human HeLa cells assessed as eGFP expression measured after 3 days by RSV Cell-based infection assay; format: functional, organism-based; conditions: 72 h
[3] = Cytotoxicity against human HeLa cells measured after 3 days by ATPlite kit assay; format: toxicity, cell-based; conditions: time 3 day
[4] = system: Respiratory syncytial virus; test: Antiviral activity against Respiratory syncytial virus (RSV) infected in human APC-126 cells assessed as replicon by measuring protein adjusted effective concentration in the presence of 40% human serum measured after 3 days by Renilla Glo assay; format: functional, organism-based; conditions: 72 h
[5] = Metabolic stability in human liver microsomes assessed as intrinsic clearance; format: ADME, Microsome; conditions: read-out: CLH
[6] = Metabolic stability in human hepatocytes assessed as intrinsic clearance per 10^6 cells at 1 uM measured upto 180 mins by LC-MS/MS analysis; format: ADME, cell-based, Hepatocyte; conditions: read-out: CLH
[7] = Metabolic stability in rat hepatocytes assessed as intrinsic clearance per 10^6 cells at 1 uM measured upto 180 mins by LC-MS/MS analysis; format: ADME, cell-based, Hepatocyte; conditions: read-out: CLH
[8] = Inhibition of human RSV-A strain Memphis 37 RNA polymerase; design: species or system Human respiratory syncytial virus A
[9] = Lipophilicity, logD of the compound; format: physicochemical; conditions: octanol/water
[10] = Apparent permeability across apical to basolateral side in dog MDCK-MDR1 cells at 5 uM measured after 60 mins; format: ADME, cell-based, Canis lupus familiaris
P-glycoprotein = test: Efflux ratio of permeability in dog MDCK-MDR1 cells assessed as P-glycoprotein mediated efflux; format: ADME, cell-based, Canis lupus familiaris
[11] = Metabolic stability in mouse hepatocytes assessed as intrinsic clearance per 10^6 cells at 1 uM measured upto 180 mins by LC-MS/MS analysis; format: ADME, cell-based, Hepatocyte; conditions: read-out: CLH
[12] = Metabolic stability in dog hepatocytes assessed as intrinsic clearance per 10^6 cells at 1 uM measured upto 180 mins by LC-MS/MS analysis; format: ADME, cell-based, Canis lupus familiaris, Hepatocyte; conditions: read-out: CLH
[13] = Plasma protein binding in mouse assessed as free fraction; format: ADME, cell-free
[14] = Plasma protein binding in rat assessed as free fraction; format: ADME, cell-free
[15] = Plasma protein binding in dog assessed as free fraction; format: ADME, cell-free, Canis lupus familiaris
[16] = Plasma protein binding in human assessed as free fraction; format: ADME, cell-free
[17] = Clearance in Balb/c mouse at 2.5 mg/kg, iv measured upto 24 hrs by LC-MS/MS analysis; format: ADME, organism-based; conditions: in vivo
[18] = Half life in Balb/c mouse at 2.5 mg/kg, iv measured upto 24 hrs by LC-MS/MS analysis; format: ADME, organism-based; conditions: in vivo
[19] = Volume of distribution at steady state in Balb/c mouse at 2.5 mg/kg, iv measured upto 24 hrs by LC-MS/MS analysis; format: ADME, organism-based; conditions: in vivo, read-out: Vdss
[20] = Cmax in Balb/c mouse at 10 mg/kg, po measured upto 24 hrs by LC-MS/MS analysis; format: ADME, organism-based; conditions: in vivo
[21] = AUC (0 to last) in Balb/c mouse at 10 mg/kg, po measured upto 24 hrs by LC-MS/MS analysis; format: ADME, organism-based; conditions: in vivo
[22] = Oral bioavailability in Balb/c mouse at 10 mg/kg measured upto 24 hrs by LC-MS/MS analysis; format: ADME, organism-based; conditions: in vivo
[23] = Clearance in Sprague-Dawley rat at 1.25 mg/kg, iv measured upto 24 hrs by LC-MS/MS analysis; format: ADME, organism-based; conditions: in vivo
[24] = Half life in Sprague-Dawley rat at 1.25 mg/kg, iv measured upto 24 hrs by LC-MS/MS analysis; format: ADME, organism-based; conditions: in vivo
[25] = Volume of distribution at steady state in Sprague-Dawley rat at 1.25 mg/kg, iv measured upto 24 hrs by LC-MS/MS analysis; format: ADME, organism-based; conditions: in vivo, read-out: Vdss
[26] = Cmax in Sprague-Dawley rat at 5 mg/kg, po measured upto 24 hrs by LC-MS/MS analysis; format: ADME, organism-based; conditions: in vivo
[27] = AUC (0 to last) in Sprague-Dawley rat at 5 mg/kg, po measured upto 24 hrs by LC-MS/MS analysis; format: ADME, organism-based; conditions: in vivo
[28] = Oral bioavailability in Sprague-Dawley rat at 5 mg/kg measured upto 24 hrs by LC-MS/MS analysis; format: ADME, organism-based; conditions: in vivo
[29] = Clearance in Beagle dog at 0.5 mg/kg, iv measured upto 24 hrs by LC-MS/MS analysis; format: ADME, organism-based, Canis lupus familiaris; conditions: in vivo
[30] = Half life in Beagle dog at 0.5 mg/kg, iv measured upto 24 hrs by LC-MS/MS analysis; format: ADME, organism-based, Canis lupus familiaris; conditions: in vivo
[31] = Volume of distribution at steady state in Beagle dog at 0.5 mg/kg, iv measured upto 24 hrs by LC-MS/MS analysis; format: ADME, organism-based, Canis lupus familiaris; conditions: in vivo, read-out: Vdss
[32] = Cmax in Beagle dog at 0.5 mg/kg, po measured upto 24 hrs by LC-MS/MS analysis; format: ADME, organism-based, Canis lupus familiaris; conditions: in vivo
[33] = AUC (0 to last) in Beagle dog at 0.5 mg/kg, po measured upto 24 hrs by LC-MS/MS analysis; format: ADME, organism-based, Canis lupus familiaris; conditions: in vivo
[34] = Oral bioavailability in Beagle dog at 0.5 mg/kg measured upto 24 hrs by LC-MS/MS analysis; format: ADME, organism-based, Canis lupus familiaris; conditions: in vivo
Human orthopneumovirus [35] = test: In vivo antiviral activity against Human respiratory syncytial virus (RSV)-A2 intranasally infected in BALB/c mouse assessed as reduction in viral titer in lung treated orally QD 1 hr prior infection until 3 day post infection by plaque assay; format: functional, organism-based; conditions: dose 1-100 mg/kg, route po
Human orthopneumovirus [36] = test: In vivo antiviral activity against Human respiratory syncytial virus (RSV)-A2 intranasally infected in BALB/c mouse assessed as reduction in viral RNA level in lung treated orally QD 1 hr prior infection until 3 day post infection by qRT-PCR analysis; format: functional, organism-based; conditions: dose 1-100 mg/kg, route po
Human orthopneumovirus [37] = test: In vivo antiviral activity against Human respiratory syncytial virus (RSV) M37 infected in lamb model assessed as reduction in viral titer in lung treated orally QD from 1 until 5 day post infection; format: functional, organism-based; conditions: dose 0.4-4 mg/kg, route po
Human orthopneumovirus [38] = test: In vivo antiviral activity against Human respiratory syncytial virus (RSV) M37 infected in lamb model assessed as reduction in BALF peak viral titer in lung treated orally QD from 1 until 5 day post infection; format: functional, organism-based; conditions: dose 0.4-4 mg/kg, route po
Human orthopneumovirus [39] = test: In vivo antiviral activity against Human respiratory syncytial virus (RSV) M37 infected in lamb model assessed as reduction in viral RNA level in lung at 0.25 to 4 mg/kg, po QD from 1 until 5 day post infection by qRT-PCR analysis; format: functional, organism-based; conditions: dose 0.25-4 mg/kg
Human orthopneumovirus [40] = test: In vivo antiviral activity against Human respiratory syncytial virus (RSV) M37 infected in lamb model assessed as reduction in RSV cells in lung at 0.25 to 4 mg/kg, po QD from 1 until 5 day post infection by branched DNA technology (RNAscope); format: functional, organism-based; conditions: dose 0.25-4 mg/kg
Human orthopneumovirus [41] = test: In vivo antiviral activity against Human respiratory syncytial virus (RSV) M37 infected in lamb model assessed as reduction in gross lesions in lung at 1 to 4 mg/kg, po QD from 1 until 5 day post infection; format: functional, organism-based; conditions: dose 1-4 mg/kg
Human orthopneumovirus [42] = test: In vivo antiviral activity against Human respiratory syncytial virus (RSV) M37 infected in lamb model assessed as reduction in microscopic lesions in lung at 1 to 4 mg/kg, po QD from 1 until 5 day post infection; format: functional, organism-based; conditions: dose 1-4 mg/kg
Human orthopneumovirus [43] = test: In vivo antiviral activity against Human respiratory syncytial virus (RSV) M37 infected in lamb model assessed as lung histopathology score at 1 to 4 mg/kg, po QD from 1 until 5 day post infection by H and E staining based assay; format: functional, organism-based; conditions: dose 1-4 mg/kg
[44] = Ratio of drug concentration in Sprague-Dawley rat lung to plasma at 5 mg/kg, po measured upto 24 hrs by LC-MS/MS analysis; format: ADME, organism-based
[45] = Clearance in Sprague-Dawley rat at 1.25 mg/kg, iv; format: ADME, organism-based; conditions: in vivo
[46] = Drug recovery in bile duct cannulated rat bile measured for 48 hrs; format: ADME, tissue-based; conditions: read-out: Drug recovery
[47] = Drug recovery in bile duct cannulated rat urine measured for 48 hrs; format: ADME, tissue-based; conditions: read-out: Drug recovery

COc1cc(C(=O)NC[C@](O)(c2cc(C(C)(C)O)c(F)c(-c3ccc(F)cc3)n2)C(F)(F)F)cc2cc(C)c(C)nc12
IC50 [1]: 0.96 nM | EC50 [2]: 8.6 nM | CC50 at 72 h [3]: 18400 nM | EC50 [4]: 61 nM | microsomal CLint [5]: > 347 µL/min/mg

COc1cc(C(=O)NC[C@](O)(c2cc(C(C)(C)O)c(F)c(-c3ccc(F)cc3)n2)C(F)(F)F)cc2cc(C)nnc12
IC50 [1]: 0.29 nM | EC50 [2]: 0.82 nM | CC50 at 72 h [3]: 27700 nM | hepatocyte CLint at 1 µM [6]: < 1.9 µL/min/1e6 cells | hepatocyte CLint at 1 µM [7]: 27 µL/min/1e6 cells | EC50 [4]: 13 nM | IC50 [8]: 0.3 nM | logD [9]: 3.55 | Papp A→B at 1 h, 5 µM [10]: 9.8 ×10⁻⁶ cm/s | efflux ratio (P-glycoprotein): > 93 | hepatocyte CLint at 1 µM [11]: 6.2 µL/min/1e6 cells | hepatocyte CLint at 1 µM [12]: 6.4 µL/min/1e6 cells | Fu [13]: 0.45% | Fu [14]: 0.13% | Fu [15]: 0.87% | Fu [16]: 0.66% | clearance [17]: 10.6 mL/min/kg | half-life [18]: 1.95 h | Vd [19]: 1.68 L/kg | Cmax [20]: 1730 ng/mL | AUC(0-t) at 24 h [21]: 9580 ng·h/mL | bioavailability [22]: 61% | clearance [23]: 8.03 mL/min/kg | half-life [24]: 3.15 h | Vd [25]: 1.04 L/kg | Cmax [26]: 401 ng/mL | AUC(0-t) at 24 h [27]: 2100 ng·h/mL | bioavailability [28]: 20% | clearance [29]: 5.62 mL/min/kg | half-life [30]: 4.25 h | Vd [31]: 1.49 L/kg | Cmax [32]: 249 ng/mL | AUC(0-t) at 24 h [33]: 1200 ng·h/mL | bioavailability [34]: 81% | Activity (Human orthopneumovirus [35]): Dose-Dependent Effect | Activity (Human orthopneumovirus [36]): Dose-Dependent Effect | Activity (Human orthopneumovirus [37]): Dose-Dependent Effect | Activity (Human orthopneumovirus [38]): Dose-Dependent Effect | Activity (Human orthopneumovirus [39]): Active | Activity (Human orthopneumovirus [40]): Active | Activity (Human orthopneumovirus [41]): Active | Activity (Human orthopneumovirus [42]): Active | Activity (Human orthopneumovirus [43]): Active | Kp at 24 h [44]: 1

COc1cc(C(=O)NC[C@](O)(c2cc3c(c(-c4ccc(F)cc4)n2)OC[C@]3(C)NS(C)(=O)=O)C(F)(F)F)cn2cc(CO)nc12
IC50 [1]: 3.4 nM | EC50 [2]: 46 nM | CC50 at 72 h [3]: > 90900 nM | hepatocyte CLint at 1 µM [6]: 4.3 µL/min/1e6 cells | hepatocyte CLint at 1 µM [7]: 20 µL/min/1e6 cells | clearance [45]: 51.2 mL/min/kg | dose excreted at 48 h [46]: 77% | dose excreted at 48 h [47]: 6%
